# Measured values: ChEMBL document CHEMBL4118148, “Design, synthesis and cardiovascular evaluation of some aminoisopropanoloxy derivatives of xanthone” (Bioorg Med Chem, 2018)
# Calls of active or inactive are those of the source. The calls are words filed in the database; no cut-off is given here.
# Key:
# [1] = test system: Rattus norvegicus; assay: Hypotensive activity in normotensive Wistar rat assessed as systolic blood pressure at 1 mg/kg, iv measured after 30 mins (reference value: 122.4 to 156.5 mmHg); assay type: functional
# [2] = test system: Rattus norvegicus; assay: Cardiotoxicity in Wistar rat assessed as effect on QRS interval time at 5 mg/kg, iv measured after 5 mins (reference value: 16.7 to 20.7 ms); assay type: toxicity, organism-based; conditions: in vivo
# [3] = test system: Rattus norvegicus; assay: Hypotensive activity in normotensive Wistar rat assessed as systolic blood pressure at 1 mg/kg, iv measured after 60 mins (reference value: 122.4 to 156.5 mmHg); assay type: functional
# [4] = test system: Rattus norvegicus; assay: Hypotensive activity in normotensive Wistar rat assessed as diastolic blood pressure at 5 mg/kg, iv measured after 20 mins (reference value: 86.5 to 119.4 mmHg); assay type: functional
# [5] = test system: Rattus norvegicus; assay: Hypotensive activity in normotensive Wistar rat assessed as diastolic blood pressure at 1 mg/kg, iv measured after 20 mins (reference value: 88.4 to 122.7 mmHg); assay type: functional
# [6] = test system: Rattus norvegicus; assay: Hypotensive activity in normotensive Wistar rat assessed as systolic blood pressure at 1 mg/kg, iv measured after 20 mins (reference value: 122.4 to 156.5 mmHg); assay type: functional
# [7] = target: T1, Adrenergic receptor alpha-1 (Rattus norvegicus) (UniProt P15823+P23944+P43140); assay: Antagonist activity at adrenergic alpha1 receptor in isolated Wistar rat aorta assessed as inhibition of […] contraction incubated for 20 mins
# [8] = test system: Rattus norvegicus; assay: Hypotensive activity in normotensive Wistar rat assessed as systolic blood pressure at 1 mg/kg, iv measured after 5 mins (reference value: 122.4 to 156.5 mmHg); assay type: functional
# [9] = test system: Rattus norvegicus; assay: Cardiotoxicity in Wistar rat assessed as effect on heart rate at 5 mg/kg, iv measured after 15 mins (reference value: 323 to 374.5 bpm); assay type: toxicity, organism-based; conditions: in vivo, 0.25 h
# [10] = test system: Rattus norvegicus; assay: Cardiotoxicity in Wistar rat assessed as effect on PQ interval time at 5 mg/kg, iv measured after 1 min (reference value: 52 to 57 ms); assay type: toxicity, organism-based; conditions: in vivo
# [11] = test system: Rattus norvegicus; assay: Hypotensive activity in normotensive Wistar rat assessed as diastolic blood pressure at 1 mg/kg, iv measured after 10 mins (reference value: 88.4 to 122.7 mmHg); assay type: functional
# [12] = test system: Rattus norvegicus; assay: Hypotensive activity in normotensive Wistar rat assessed as diastolic blood pressure at 5 mg/kg, iv measured after 60 mins (reference value: 86.5 to 119.4 mmHg); assay type: functional
# [13] = test system: Rattus norvegicus; assay: Hypotensive activity in normotensive Wistar rat assessed as diastolic blood pressure at 1 mg/kg, iv measured after 5 mins (reference value: 88.4 to 122.7 mmHg); assay type: functional
# [14] = test system: Rattus norvegicus; assay: Hypotensive activity in normotensive Wistar rat assessed as systolic blood pressure at 5 mg/kg, iv measured after 10 mins (reference value: 119.2 to 148.6 mmHg); assay type: functional
# [15] = test system: Rattus norvegicus; assay: Cardiotoxicity in Wistar rat assessed as effect on PQ interval time at 5 mg/kg, iv measured after 15 mins (reference value: 52 to 57 ms); assay type: toxicity, organism-based; conditions: in vivo, 0.25 h
# [16] = test system: Rattus norvegicus; assay: Cardiotoxicity in Wistar rat assessed as effect on QTC interval time at 5 mg/kg, iv measured after 1 min (reference value: 136.7 to 146.2 ms); assay type: toxicity, organism-based; conditions: in vivo
# [17] = test system: Rattus norvegicus; assay: Cardiotoxicity in Wistar rat assessed as effect on QRS interval time at 5 mg/kg, iv measured after 15 mins (reference value: 16.7 to 20.7 ms); assay type: toxicity, organism-based; conditions: in vivo, 0.25 h
# [18] = test system: Rattus norvegicus; assay: Hypotensive activity in normotensive Wistar rat assessed as diastolic blood pressure at 1 mg/kg, iv measured after 60 mins (reference value: 88.4 to 122.7 mmHg); assay type: functional
# [19] = test system: Rattus norvegicus; assay: Hypotensive activity in normotensive Wistar rat assessed as systolic blood pressure at 1 mg/kg, iv measured after 10 mins (reference value: 122.4 to 156.5 mmHg); assay type: functional
# [20] = test system: Rattus norvegicus; assay: Hypotensive activity in normotensive Wistar rat assessed as diastolic blood pressure at 1 mg/kg, iv measured after 30 mins (reference value: 88.4 to 122.7 mmHg); assay type: functional
# [21] = test system: Rattus norvegicus; assay: Cardiotoxicity in Wistar rat assessed as effect on QT interval time at 5 mg/kg, iv measured after 1 min (reference value: 57.7 to 61 ms); assay type: toxicity, organism-based; conditions: in vivo
# [22] = test system: Rattus norvegicus; assay: Hypotensive activity in normotensive Wistar rat assessed as systolic blood pressure at 0.5 mg/kg, iv measured after 30 mins (reference value: 116 +/- 4.6 mmHg); assay type: functional
# [23] = test system: Rattus norvegicus; assay: Antiarrhythmic activity in Wistar rat assessed as inhibition of adrenaline-induced premature ventricular extrasystoles administered iv 15 mins prior to adrenaline challenge; assay type: functional
# [24] = test system: Rattus norvegicus; assay: Hypotensive activity in normotensive Wistar rat assessed as systolic blood pressure at 0.5 mg/kg, iv measured after 20 mins (reference value: 116 +/- 4.6 mmHg); assay type: functional
# [25] = target: Beta-2 adrenergic receptor (Cavia porcellus, UniProt Q8K4Z4); assay: Antagonist activity at adrenergic beta2 receptor in isolated guinea pig trachea assessed as inhibition of isoprenaline-induced bronchodilation incubated for 20 mins; assay type: functional; conditions: read-out: pA2 (converted)
# Sequence of Beta-2 adrenergic receptor (Q8K4Z4 whole entry): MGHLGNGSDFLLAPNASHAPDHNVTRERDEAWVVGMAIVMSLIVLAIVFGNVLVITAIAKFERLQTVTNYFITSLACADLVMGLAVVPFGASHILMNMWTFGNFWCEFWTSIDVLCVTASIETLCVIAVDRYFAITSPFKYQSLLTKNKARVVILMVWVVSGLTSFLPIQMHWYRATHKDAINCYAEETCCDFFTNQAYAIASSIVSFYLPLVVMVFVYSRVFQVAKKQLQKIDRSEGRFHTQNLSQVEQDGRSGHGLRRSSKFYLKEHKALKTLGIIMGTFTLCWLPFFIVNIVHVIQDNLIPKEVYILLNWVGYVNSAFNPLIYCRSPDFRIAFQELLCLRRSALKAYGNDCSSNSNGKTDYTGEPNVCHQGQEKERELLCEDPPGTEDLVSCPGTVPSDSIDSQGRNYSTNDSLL
# [26] = test system: Rattus norvegicus; assay: Hypotensive activity in normotensive Wistar rat assessed as reduction in systolic blood pressure at 1 mg/kg, iv measured over 30 mins relative to control; assay type: functional; parameters: scale not given: the % may be the effect or the level left
# [27] = test system: Rattus norvegicus; assay: In vivo inhibition of beta adrenoceptor in Wistar rat assessed as reduction in isoprenaline-induced tachycardia at 5 mg/kg, iv administered as single dose 10 mins prior to isoprenaline injection; assay type: functional, organism-based
# [28] = test system: Rattus norvegicus; assay: Hypotensive activity in normotensive Wistar rat assessed as reduction in diastolic blood pressure at 1 mg/kg, iv measured after 30 to 60 mins relative to control; assay type: functional; parameters: scale not given: the % may be the effect or the level left
# [29] = test system: Rattus norvegicus; assay: In vivo inhibition of beta adrenoceptor in Wistar rat assessed as reduction in isoprenaline-induced tachycardia at 1 mg/kg, iv administered as single dose 10 mins prior to isoprenaline injection; assay type: functional, organism-based
# [30] = test system: Rattus norvegicus; assay: Cardiotoxicity in Wistar rat assessed as effect on heart rate at 1 mg/kg, iv measured after 1 min (reference value: 320.6 +/- 8.1 bpm); assay type: toxicity, organism-based; conditions: in vivo
# [31] = target: T1, Adrenergic receptor alpha-1 (Rattus norvegicus); assay: Displacement of [3H][…]prazosin from adrenergic alpha1 receptor in Wistar rat cortex at 10^-5 M incubated for 30 mins by microbeta liquid scintillation counting analysis
# [32] = test system: Blood; assay: Anti-aggregative activity in Wistar rat whole blood assessed as inhibition of collagen/adrenaline-induced aggregation preincubated for 3 mins followed by collagen induction measured for 6 mins; assay type: functional, tissue-based
# [33] = test system: Rattus norvegicus; assay: Hypotensive activity in normotensive Wistar rat assessed as reduction in diastolic blood pressure at 1 mg/kg, iv measured over 10 mins relative to control; assay type: functional; parameters: scale not given: the % may be the effect or the level left
compound,measurement,setting,value
Cl.O=c1c2ccccc2oc2cc(OCC(O)CN3CCN(c4ccccn4)CC3)ccc12 (racemic),Activity,[1],127.2 mmHg
same,Time,[2],20 ms
same,Activity,[3],122.7 mmHg
same,Activity,[4],80.3 mmHg
same,Activity,[5],103.8 mmHg
same,Activity,[6],131 mmHg
same,pKb,[7],8.2
same,Activity,[8],138.3 mmHg
same,Activity,[9],295.3 bpm
same,Time,[10],55.3 ms
same,Activity,[11],107 mmHg
same,Activity,[12],74.7 mmHg
same,Activity,[13],107.5 mmHg
same,Activity,[14],110.3 mmHg
same,Time,[15],56 ms
same,Time,[16],140.2 ms
same,Time,[17],21.3 ms
same,Activity,[18],94.2 mmHg
same,Activity,[19],136 mmHg
same,Activity,[20],100.2 mmHg
same,Time,[21],59 ms
Cl.O=c1c2ccccc2oc2c(OCC(O)CN3CCN(c4ccccn4)CC3)cccc12 (racemic),Activity,[1],140 mmHg
same,Time,[2],18 ms
same,Activity,[3],138.7 mmHg
same,Activity,[22],110.3 mmHg
same,ED50,[23],4.82 mg/kg
same,Activity,[4],102.6 mmHg
same,Activity,[5],133 mmHg
same,Activity,[6],142.5 mmHg
same,pKb,[7],7.52
same,Activity,[8],146.2 mmHg
same,Activity,[9],343 bpm
same,Time,[10],58.2 ms
same,Activity,[11],113.5 mmHg
same,Activity,[12],96.6 mmHg
same,Activity,[24],114 mmHg
same,Activity,[13],111.7 mmHg
same,Activity,[14],131.4 mmHg
same,Time,[15],59 ms
same,Time,[16],145.4 ms
same,Time,[17],19.2 ms
same,Activity,[18],106.7 mmHg
same,Activity,[19],146.2 mmHg
same,Activity,[20],110.5 mmHg
same,Time,[21],58.7 ms
COc1ccccc1OCCNCC(O)COc1cccc2c(=O)c3ccccc3oc12.Cl (racemic),Activity,[1],112.4 mmHg
same,Time,[2],19.3 ms
same,Activity,[3],106.8 mmHg
same,Activity,[4],71.5 mmHg
same,Activity,[5],84 mmHg
same,Activity,[6],114.8 mmHg
same,pKb,[7],8.34
same,Kb,[25],18.1 nM
same,Activity,[8],119.6 mmHg
same,Activity,[9],308.7 bpm
same,Time,[10],56 ms
same,Activity,[26],6 - 13%
same,Activity,[11],82.8 mmHg
same,Activity,[12],80 mmHg
same,Activity,[13],85.4 mmHg
same,Activity,[14],106.5 mmHg
same,Time,[15],57.3 ms
same,Time,[16],157.2 ms
same,Time,[17],18.7 ms
same,Activity,[18],75.6 mmHg
same,Activity,[19],114.8 mmHg
same,Activity,[20],81.6 mmHg
same,inhibition,[27],Active
same,Time,[21],70 ms
COc1ccccc1CNCC(O)COc1cccc2c(=O)c3ccccc3oc12.Cl (racemic),Time,[2],22.7 ms
same,Activity,[4],100.6 mmHg
same,Kb,[25],114 nM
same,Activity,[9],265 bpm
same,Time,[10],60.7 ms
same,Activity,[12],94.3 mmHg
same,Activity,[14],147.7 mmHg
same,Time,[15],57.7 ms
same,Time,[16],151.4 ms
same,Time,[17],21.3 ms
same,inhibition,[27],Active
same,Time,[21],65.5 ms
CC(C)(C)NCC(O)COc1cccc2c(=O)c3ccccc3oc12.Cl (racemic),Activity,[28],10 - 13%
same,Activity,[1],128.2 mmHg
same,Activity,[3],123 mmHg
same,ED50,[23],1.63 mg/kg
same,inhibition,[29],Active
same,Activity,[5],103.7 mmHg
same,Activity,[30],307.2 bpm
same,Activity,[6],131.6 mmHg
same,Kb,[25],0.31 nM
same,Activity,[8],146.4 mmHg
same,Activity,[11],109.5 mmHg
same,Activity,[31],inactive
same,Activity,[13],111 mmHg
same,Activity,[18],96.7 mmHg
same,Activity,[19],142.6 mmHg
same,Activity,[20],100 mmHg
same,IC50,[32],82300 nM
same,inhibition,[32],Dose-dependent effect
COc1ccccc1CCNCC(O)COc1cccc2c(=O)c3ccccc3oc12.Cl (racemic),Activity,[33],7%
same,Activity,[1],135 mmHg
same,Time,[2],19 ms
same,Activity,[3],126.3 mmHg
same,ED50,[23],2.2 mg/kg
same,Activity,[4],98.8 mmHg
same,Activity,[5],111.5 mmHg
same,Activity,[6],141 mmHg
same,pKb,[7],8.28
same,Kb,[25],21.4 nM
same,Activity,[8],147.8 mmHg
same,Activity,[9],390.5 bpm
same,Time,[10],52 ms
same,Activity,[26],5 - 11%
same,Activity,[11],114.2 mmHg
same,Activity,[12],89.6 mmHg
same,Activity,[13],114.8 mmHg
same,Activity,[14],133.4 mmHg
same,Time,[15],51 ms
same,Time,[16],149.3 ms
same,Time,[17],17 ms
same,Activity,[18],101.2 mmHg
same,Activity,[19],147 mmHg
same,Activity,[20],107.7 mmHg
same,inhibition,[27],Active
same,Time,[21],60.5 ms
same,IC50,[32],44800 nM
same,inhibition,[32],Dose-dependent effect
